Experimental data from US20260345802A1, “ANTIBODY-DRUG CONJUGATES AND LINKERS AND METHODS OF USE THEREOF” (priority 2023, published 2026).
Where a SMILES comes first, the peptide text is derived from it. [ ]: non-standard residue; d: D form. Dolaproine = CO[C@@H]([C@@H]1CCCN1)[C@@H](C)C(=O)O; Dil = CC[C@H](C)[C@H](NC)[C@@H](CC(=O)O)OC; NMeV = CN[C@H](C(=O)O)C(C)C

Test system: TNBC tumor tissue
Assay: Single-cell RNA sequencing of tumors
Assay type: in vivo, mouse
Details: scRNA-Seq, payload effect
Procedure: The flash-frozen tissue samples (25 mg) were collected and stored at −80° C. until processing. Chromium Next GEM RNA Profiling Sample Fixation Kit (PN-1000414, 10× Genomics, Pleasanton, CA, USA) was used to fix tissue by mixing 1 mL of fixation buffer with 25 mg of tissue, followed by fine mince and incubation at 4° C. for 16-24 hours without agitation. After fixation, tissue samples were centrifuged, washed with chilled PBS, and resuspended in 1 mL of tissue resuspension buffer. The fixed tissues supplemented with pre-warmed dissociation buffer were dissociated using an Octo Dissociator according to the manufacturer's instructions. […] Cell concentration was determined using an automated cell counter with fluorescent nucleic acid staining. […]
A 10× single-cell library was prepared using the Chromium Fixed RNA Kit (Cat #1000497, 10× Genomics). […] The quality control of cDNA was evaluated using an Agilent Bioanalyzer aiming for the final library molecules with P5 and P7 priming sites used in Illumina sequencers. For each cDNA sample, single-cell library construction was started using the 10× barcoded ligated probe products, and sequenced using the NovaSeq 6000 flow cell 100-cycle kit (Illumina, San Diego, CA, USA) in a Read1:i7:i5:Read2 format of 28:10:10:90 bp at 10× Genomics. […]

SMILES: CC[C@H](C)[C@@H]([C@@H](CC(=O)N1CCC[C@H]1[C@H](OC)[C@@H](C)C(=O)N[C@@H](Cc1ccccc1)C(=O)O)OC)N(C)C(=O)[C@@H](NC(=O)[C@@H](NC)C(C)C)C(C)C [MMAF, Monomethylauristatin F] (H-[NMeV]V[Dil][Dolaproine]F-OH)
- tumor cell distribution in mitotic stages: inhibition of cell proliferation
